# Laboratory results from the supplement of paper PMC8149375.
# How the values were obtained:
# Conditions in all cases: treatment: drug + dasatinib (fixed dose, not stated); 5 days
# [1] = tested on: 769-P; assay: GI50 of drug in presence of dasatinib; higher = less potent
# Method: (§1)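 Primary HTS combination arm: 8 RCC cell lines treated with 8 doses (up to 10 uM) of each library drug plus a fixed dose of dasatinib (dose not stated) for 5 days; viability read by CellTiter-Glo and normalised to DMSO. GI50 was fitted with XLfit, AUC is the area under the dose-response curve, and minimum viability is the lowest fraction of DMSO viability across doses.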
# [2] = tested on: 786-O; assay: as above
# Method: as §1
# [3] = tested on: A498; assay: as above
# Method: as §1
# [4] = tested on: ACHN; assay: as above
# Method: as §1
# [5] = tested on: CAKI-1; assay: as above
# Method: as §1
# [6] = tested on: SN12C; assay: as above
# Method: as §1
# [7] = tested on: TK-10; assay: as above
# Method: as §1
# [8] = tested on: UO-31; assay: as above
# Method: as §1
# [9] = tested on: 769-P; assay: minimum viability across doses, drug + dasatinib, relative to DMSO (fraction); higher = less growth inhibition
# Method: as §1
# [10] = tested on: 786-O; assay: as above
# Method: as §1
# [11] = tested on: A498; assay: as above
# Method: as §1
# [12] = tested on: ACHN; assay: as above
# Method: as §1
# [13] = tested on: CAKI-1; assay: as above
# Method: as §1
# [14] = tested on: SN12C; assay: as above
# Method: as §1
# [15] = tested on: TK-10; assay: as above
# Method: as §1
# [16] = tested on: UO-31; assay: as above
# Method: as §1
# [17] = tested on: 769-P; assay: AUC of dose-response viability curve, drug + dasatinib, normalised to DMSO (arbitrary (AUC of normalised viability)); higher = less growth inhibition
# Method: as §1
# [18] = tested on: 786-O; assay: as above
# Method: as §1
# [19] = tested on: A498; assay: as above
# Method: as §1
# [20] = tested on: ACHN; assay: as above
# Method: as §1
# [21] = tested on: CAKI-1; assay: as above
# Method: as §1
# [22] = tested on: SN12C; assay: as above
# Method: as §1
# [23] = tested on: TK-10; assay: as above
# Method: as §1
# [24] = tested on: UO-31; assay: as above
# Method: as §1
Structure (SMILES),GI50 of drug [1],GI50 of drug [2],GI50 of drug [3],GI50 of drug [4],GI50 of drug [5],GI50 of drug [6],GI50 of drug [7],GI50 of drug [8],minimum viability across doses [9],minimum viability across doses [10],minimum viability across doses [11],minimum viability across doses [12],minimum viability across doses [13],minimum viability across doses [14],minimum viability across doses [15],minimum viability across doses [16],AUC of dose-response viability curve [17],AUC of dose-response viability curve [18],AUC of dose-response viability curve [19],AUC of dose-response viability curve [20],AUC of dose-response viability curve [21],AUC of dose-response viability curve [22],AUC of dose-response viability curve [23],AUC of dose-response viability curve [24]
OCCn1cc(-c2ccc3c(c2)CC/C3=N\O)c(-c2ccncc2)n1 [GDC-0879] + Cc1nc(Nc2ncc(C(=O)Nc3c(C)cccc3Cl)s2)cc(N2CCN(CCO)CC2)n1 [dasatinib],> 10000 nM,> 10000 nM,> 10000 nM,4230 nM,> 10000 nM,> 10000 nM,> 10000 nM,> 10000 nM,0.605,0.568,0.804,0.354,0.738,0.686,0.716,0.894,2.36,2.39,3.55,2.12,2.86,2.62,3.05,3.45
CS(=O)(=O)N1CCN(Cc2cc3nc(-c4cccc5[nH]ncc45)nc(N4CCOCC4)c3s2)CC1 [GDC-0941] + Cc1nc(Nc2ncc(C(=O)Nc3c(C)cccc3Cl)s2)cc(N2CCN(CCO)CC2)n1 [dasatinib],234 nM,225 nM,3090 nM,82.6 nM,111 nM,386 nM,302 nM,172 nM,0.111,0.00743,0.319,0.163,0.0678,0.235,0.171,0.0152,1.73,1.81,2.56,1.55,1.48,1.96,1.93,1.71
Cc1c(CN2CCN(C(=O)[C@H](C)O)CC2)sc2c(N3CCOCC3)nc(-c3cnc(N)nc3)nc12 [GDC-0980 (RG7422)] + Cc1nc(Nc2ncc(C(=O)Nc3c(C)cccc3Cl)s2)cc(N2CCN(CCO)CC2)n1 [dasatinib],80.4 nM,81.1 nM,658 nM,25.5 nM,102 nM,119 nM,103 nM,268 nM,0.0451,0.00396,0.17,0.0521,0.02,0.0934,0.0374,0.00909,1.44,1.47,2.4,1.12,1.36,1.45,1.47,2.18
CN1CCN(C2CCN(C(=O)Nc3cc(Oc4ccc(NC(=O)C5(C(=O)Nc6ccc(F)cc6)CC5)c(F)c4)ccn3)CC2)CC1 [Golvatinib (E7050)] + Cc1nc(Nc2ncc(C(=O)Nc3c(C)cccc3Cl)s2)cc(N2CCN(CCO)CC2)n1 [dasatinib],3670 nM,434 nM,9520 nM,368 nM,541 nM,1620 nM,886 nM,3090 nM,0.131,0.0302,0.335,0.0563,0.0248,0.191,0.154,0.0151,2.3,1.93,3.93,1.63,1.89,2.19,2.09,4.48
CCOC(=O)C1=C(N)Oc2ccc(Br)cc2[C@H]1[C@H](C#N)C(=O)OCC [HA14-1] + Cc1nc(Nc2ncc(C(=O)Nc3c(C)cccc3Cl)s2)cc(N2CCN(CCO)CC2)n1 [dasatinib],> 10000 nM,> 10000 nM,> 10000 nM,> 10000 nM,> 10000 nM,> 10000 nM,> 10000 nM,> 10000 nM,0.737,0.624,0.797,0.579,0.628,0.69,0.725,0.952,2.77,2.65,3.14,2.17,2.35,2.54,2.71,3.92
COc1ccc(S(=O)(=O)N(C(C)=O)c2ccccc2/C=C/c2cc[n+]([O-])cc2)cc1 [HMN-214] + Cc1nc(Nc2ncc(C(=O)Nc3c(C)cccc3Cl)s2)cc(N2CCN(CCO)CC2)n1 [dasatinib],278 nM,99.7 nM,387 nM,5.38 nM,74.4 nM,342 nM,609 nM,499 nM,0.0839,0.00332,0.124,0.102,0.121,0.172,0.297,0.00841,1.95,1.18,2.04,1.15,1.32,1.78,2.02,2.65
CCS(=O)(=O)Nc1ccc2c(c1)/C(=C(/Nc1ccc(CN3CCCCC3)cc1)c1ccccc1)C(=O)N2 [Hesperadin] + Cc1nc(Nc2ncc(C(=O)Nc3c(C)cccc3Cl)s2)cc(N2CCN(CCO)CC2)n1 [dasatinib],327 nM,46.6 nM,441 nM,14.7 nM,45.5 nM,82.6 nM,713 nM,357 nM,0.0628,0.0121,0.109,0.00666,0.0323,0.00226,0.0643,0.0118,1.86,1.2,2.05,1.18,1.15,1.26,2.17,2.5
O=C(Nc1cc(C(F)(F)F)cc(C(F)(F)F)c1)c1cc(Cl)ccc1O [IMD 0354] + Cc1nc(Nc2ncc(C(=O)Nc3c(C)cccc3Cl)s2)cc(N2CCN(CCO)CC2)n1 [dasatinib],557 nM,373 nM,1700 nM,220 nM,481 nM,1340 nM,759 nM,2030 nM,0.00617,0.00625,0.0122,0.00153,0.0138,0.00339,0.07,0.0139,1.9,1.62,2.92,1.29,1.85,1.97,2.03,4.26
CC(C)n1nc(-c2ccc3oc(N)nc3c2)c2c(N)ncnc21 [INK 128] + Cc1nc(Nc2ncc(C(=O)Nc3c(C)cccc3Cl)s2)cc(N2CCN(CCO)CC2)n1 [dasatinib],14.7 nM,4.88 nM,33.8 nM,3.03 nM,9.18 nM,13.1 nM,9.96 nM,13.8 nM,0.0625,0.00403,0.0897,0.0339,0.0244,0.0733,0.0156,0.00639,0.95,0.59,1.19,0.554,0.693,0.931,0.838,0.741
CS(=O)(=O)O.Cc1ccc(NC(=O)c2ccc(CN3CCN(C)CC3)cc2)cc1Nc1nccc(-c2cccnc2)n1 [Imatinib Mesylate] + Cc1nc(Nc2ncc(C(=O)Nc3c(C)cccc3Cl)s2)cc(N2CCN(CCO)CC2)n1 [dasatinib],> 10000 nM,> 10000 nM,> 10000 nM,> 10000 nM,> 10000 nM,> 10000 nM,> 10000 nM,> 10000 nM,0.562,0.584,0.945,0.595,0.603,0.688,0.666,0.683,2.34,2.69,3.53,2.48,2.36,2.49,2.85,3.49
O=C(c1ccc(/C=C/c2n[nH]c3ccccc23)cc1)N1CCNCC1 [KW 2449] + Cc1nc(Nc2ncc(C(=O)Nc3c(C)cccc3Cl)s2)cc(N2CCN(CCO)CC2)n1 [dasatinib],2780 nM,8580 nM,> 10000 nM,78.5 nM,2540 nM,1240 nM,> 10000 nM,3520 nM,0.162,0.425,0.521,0.159,0.15,0.0456,0.611,0.0258,2.33,2.58,3.27,1.64,2.03,2.05,2.89,3.7
O=C(Cc1ccc(-c2ccc(OCCN3CCOCC3)cc2)cn1)NCc1ccccc1 [KX2-391] + Cc1nc(Nc2ncc(C(=O)Nc3c(C)cccc3Cl)s2)cc(N2CCN(CCO)CC2)n1 [dasatinib],35.9 nM,14.9 nM,77.6 nM,43.3 nM,29.5 nM,46.7 nM,104 nM,92.6 nM,0.0616,0.00445,0.166,0.1,0.111,0.114,0.243,0.00946,1.09,0.764,1.78,1.23,1.12,1.34,1.69,1.77
COc1cc2nccc(Oc3ccc(NC(=O)Nc4ccc(F)cc4F)c(F)c3)c2cc1OC [Ki8751] + Cc1nc(Nc2ncc(C(=O)Nc3c(C)cccc3Cl)s2)cc(N2CCN(CCO)CC2)n1 [dasatinib],1090 nM,8550 nM,> 10000 nM,1280 nM,1410 nM,> 10000 nM,> 10000 nM,> 10000 nM,0.304,0.483,1.04,0.352,0.154,0.546,0.683,0.735,2.15,2.33,4.09,1.89,1.95,2.37,2.6,3.73
